US20220289719A1, “HETEROCYCLIC COMPOUNDS AS MNK INHIBITORS” (NANJING INNOCARE PHARMA TECH CO., LTD., priority 2017, published 2022)
Structures can show the parent of a compound that is named as a salt.

Biological target: T1, Human recombinant full-length MNK1 protein (Homo sapiens, UniProt Q9BUB5)
T1 construct: Human recombinant full-length MNK1 protein; purchased Thermo PR9138A
Experiment: MNK1 inhibitory activity assay (ADP-Glo in vitro kinase assay)
Format: biochemical
Details: 10 concentration points
Description: MNK1 Inhibitory Activity Assay: Evaluation of the effects of compounds of the invention on […] (MNK1) activity using in vitro kinase assays. The experimental methods are summarized as follows: The in vitro activity of MNK1 was determined by measuring the level of ADP produced in the kinase reaction using the ADP-Glo Kinase Assay Kit. The reaction buffer consisted of the following components: 50 mM HEPES, pH 7.5, 10 mM MgCl2, 1 mM EGTA, 0.01% Brij35. Human recombinant full-length MNK1 protein (Thermo, Cat. No. PR9138A) was diluted with a reaction buffer to a 3.13 ng/uL kinase solution. The substrate reaction solution consisted of a substrate diluted to 0.75 mg/ml in reaction buffer ([…], available from […] Domestic Company), 2250 uM ATP, the ADP-Glo reagent and kinase assay solution from Promega kit (Promega, V9102). […] If the compound IC50 value is very low, the initial concentration of the compound can be lowered. To a 384-well assay plate (Thermo, Cat. No. 264706) were added 1 uL of compound solution and 2 uL of MNK1 kinase solution. The mixture was mixed well and incubated for 30 minutes at room temperature; then 2 uL of substrate reaction solution was added, the reaction mixture was incubated for 120 minutes at room temperature. The reaction was terminated after an equal volume of 5uLADP-Glo solution was added, and the remaining ATP was completely consumed. After mixing for 60 minutes at room temperature, 10 ul of the kinase assay solution was added, and the mixture was uniformly mixed, and allowed to stand at room temperature for 40 minutes in the dark. The detection solution converts ADP into new ATP through coupled luciferase/luciferin, and ATP is converted into optical signal by Ultr-GloTM luciferase, which can be detected by Envision. The intensity of the light signal is proportional correlated with the amount of ADP produced in the kinase reaction, therefore, the activity of MNK1 kinase can be determined. In this experiment, the group without protein was used as a negative control (100% inhibition). The group with protein but without compounds was used as a positive control (0% inhibition).

T1 sequence (Q9BUB5 whole entry): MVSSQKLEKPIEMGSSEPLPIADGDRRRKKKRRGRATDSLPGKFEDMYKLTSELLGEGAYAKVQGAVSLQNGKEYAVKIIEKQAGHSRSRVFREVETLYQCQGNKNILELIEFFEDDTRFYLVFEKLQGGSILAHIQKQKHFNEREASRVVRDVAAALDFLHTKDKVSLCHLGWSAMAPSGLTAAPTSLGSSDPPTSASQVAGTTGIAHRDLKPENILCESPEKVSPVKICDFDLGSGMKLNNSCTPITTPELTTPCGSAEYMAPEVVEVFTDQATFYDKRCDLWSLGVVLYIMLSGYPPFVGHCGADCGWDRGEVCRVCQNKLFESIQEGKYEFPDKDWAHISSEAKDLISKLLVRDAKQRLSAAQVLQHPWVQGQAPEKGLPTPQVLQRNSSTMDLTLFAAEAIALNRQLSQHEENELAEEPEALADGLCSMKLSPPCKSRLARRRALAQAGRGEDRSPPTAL

| Structure (SMILES) | IC50 |
| --- | --- |
| COc1cc2[nH]ncc2cc1Nc1cc(Nc2cc(Cl)ccn2)ncn1 [Compound 21, 5-(6-((4-Chloropyridin-2-yl)amino)pyrimidin-4-ylamino)-6-methoxy-1H-indazole] | 0.0782 µM |
| COc1cc2[nH]ncc2cc1Nc1cc(Nc2ccncn2)ncn1 [Compound 22, 5-(6-(pyrimidin-4-ylamino)pyrimidin-4-ylamino)-6-methoxy-1H-indazole formate] | 0.0233 µM |
| COc1cc2[nH]ncc2cc1Nc1cc(Nc2cccc(Cl)n2)ncn1 [Compound 23, 5-(6-((6-Chloropyridin-2-yl)amino)pyrimidin-4-ylamino)-6-methoxy-1H-indazole] | 0.0313 µM |
| COc1cc2[nH]ncc2cc1Nc1cc(Nc2ccc(Cl)cn2)ncn1 [Compound 24, 5-(6-((5-Chloropyridin-2-yl)amino)pyrimidin-4-ylamino)-6-methoxy-1H-indazole formate] | 0.0422 µM |
| COc1cc2[nH]ncc2cc1Nc1cc(Nc2cc(C(F)(F)F)ccn2)ncn1 [Compound 25, 5-(6-((4-(Trifluoromethyl)pyridin-2-yl)amino)pyrimidin-4-ylamino)-6-methoxy-1H-indazole] | 0.04 µM |
| COc1cc2[nH]ncc2cc1Nc1cc(Nc2ncc(Cl)cn2)ncn1 [Compound 26, 5-(6-((5-chloropyrimidin-2-yl)amino)pyrimidin-4-ylamino)-6-methoxy-1H-indazole] | 0.0366 µM |
| COc1cc2[nH]ncc2cc1Nc1cc(Nc2ncccn2)ncn1 [Compound 27, 5-(6-(Pyrimidin-2-ylamino)pyrimidin-4-ylamino)-6-methoxy-1H-indazole] | 0.0438 µM |
| COc1cc2[nH]ncc2cc1Nc1cc(Nc2ncccc2Cl)ncn1 [Compound 28, 5-(6-((3-Chloropyridin-2-yl)amino)pyrimidin-4-ylamino)-6-methoxy-1H-indazole] | 0.539 µM |
| COc1cc2[nH]ncc2cc1Nc1cc(Nc2cnccn2)ncn1 [Compound 29, 5-(6-(Pyrazin-2-ylamino)pyrimidin-4-ylamino)-6-methoxy-1H-indazole] | 0.0579 µM |
| CNc1cc(Nc2cc3cn[nH]c3cc2OC)ncn1 [Compound 30, 5-(6-Methylaminopyrimidin-4-ylamino)-6-methoxy-1H-indazole] | 0.141 µM |
| COc1cc2[nH]ncc2cc1Nc1cc(NC2CC2)ncn1 [Compound 31, 5-(6-Cyclopropylaminopyrimidin-4-ylamino)-6-methoxy-1H-indazole formate] | 0.126 µM |
| COc1cc2[nH]ncc2cc1Nc1ncnc(N)c1C1=CCC(C(=O)O)CC1 (stereo not drawn) [Compound 32, 5-((6-Amino-5-cyclohex-3-ene-1-carboxypyrimidin-4-yl)amino)-6-methoxy-1H-indazole hydrochloride] | 0.166 µM |
| COc1cc2[nH]ncc2cc1Nc1ncnc(N)c1C1=CCC(C(=O)N2CCN(C)CC2)CC1 (stereo not drawn) [Compound 33, 5-((6-Amino-5-cyclohex-3-en-1-yl (4-methylpiperazin-1-yl)methanylpyrimidin-4-yl)amino)-6-methoxy-1H-indazole formate] | 0.0947 µM |
| COc1cc2[nH]ncc2cc1Nc1ncnc(N)c1C1=CCC(C(=O)N(C)C)CC1 (stereo not drawn) [Compound 34, 4-(4-Amino-6-((6-methoxy-1H-indazol-5-yl)amino)pyrimidin-5-yl)-N,N-dimethylcyclohex-3-ene-1-carboxamide formate] | 0.45 µM |
| CCOC(=O)c1c(N)ncnc1Nc1cc2cnn(C(=O)OC(C)(C)C)c2cc1OC [Compound 35, 1-tert-Butoxycarbonyl-5-((6-amino-5-ethoxycarbonylpyrimidin-4-yl)amino)-6-methoxyindazole] | 0.0325 µM |
| CCOC(=O)c1c(N)ncnc1Nc1cc2cn[nH]c2cc1OC [Compound 36, 5-((6-Amino-5-ethoxycarbonylpyrimidin-4-yl)amino)-6-methoxy-1H-indazole dicarboxylate] | 0.0078 µM |
| CCOC(=O)c1c(NC(C)=O)ncnc1Nc1cc2cnn(C(=O)OC(C)(C)C)c2cc1OC [Compound 37, 1-tert-Butoxycarbonyl-5-((6-(acetylamino)-5-ethoxycarbonylpyrimidin-4-yl)amino)-6-methoxyindazole] | 0.0238 µM |
| CCOC(=O)c1c(NC(C)=O)ncnc1Nc1cc2cn[nH]c2cc1OC [Compound 38, 5-((6-(Acetylamino)-5-ethoxycarbonylpyrimidin-4-yl)amino)-6-methoxy-1H-indazole] | 0.0119 µM |
| COc1cc2[nH]ncc2cc1Nc1ncnc(N)c1C(=O)O [Compound 39, 5-((6-Amino-5-carbonylpyrimidin-4-yl)amino)-6-methoxy-1H-indazole formate] | 0.013 µM |
| COc1cc2[nH]ncc2cc1Nc1ncnc(N)c1C(=O)N(C)C [Compound 40] | 1.14 µM |
| COc1cc2[nH]ncc2cc1Nc1ncnc(N)c1C(=O)N1CCOCC1 [Compound 41] | 1.05 µM |

| Structure (SMILES) | IC50 |
| --- | --- |
| COc1cc2[nH]ncc2cc1Nc1ncnc(N)c1C#N [Compound 42, 5-((6-Amino-5-cyanopyrimidin-4-yl)amino)-6-methoxy-1H-indazole] | 0.6 µM |
| COc1cc2c(cnn2C(=O)OC(C)(C)C)cc1Nc1ncnc(N)c1-c1ccccn1 [Compound 43] | 0.264 µM |
| COc1cc2[nH]ncc2cc1Nc1ncnc(N)c1-c1ccccn1 [Compound 44, 5-((6-amino-5-(pyridin-2-yl)pyrimidin-4-yl)amino-6-methoxy-1H-indazole formate] | 1 µM |
| COc1cc2[nH]ncc2cc1Nc1ncnc(N)c1F [Compound 45, 5-((6-Amino-5-fluoropyrimidin-4-yl)amino)-6-methoxy-1H-indazole] | 0.0353 µM |
| COc1cc2[nH]ncc2cc1Nc1ncnc(N)c1OC [Compound 46, 5-((6-Amino-5-methoxypyrimidin-4-yl)amino)-6-methoxy-1H-indazole] | 0.0494 µM |
| COc1cc2[nH]ncc2cc1Nc1ncnc(N)c1C [Compound 47, 5-((6-Amino-5-methylpyrimidin-4-yl)amino)-6-methoxy-1H-indazole] | 0.0791 µM |
| COc1cc2[nH]ncc2cc1Nc1ncnc(NC(=O)C2CC2)c1C [Compound 48, 5-((6-(Cyclopropionamido)-5-methylpyrimidin-4-yl)amino)-6-methoxy-1H-indazole] | 0.187 µM |
| COc1cc2[nH]ncc2cc1Nc1cc(NS(=O)(=O)C2CC2)ncn1 [Compound 49, 5-((6-(Cyclopropanesulfonylamino)pyrimidin-4-yl)amino)-6-methoxy-1H-indazole] | 1.05 µM |
| COc1nc2[nH]ncc2cc1Nc1cc(NC(C)=O)ncn1 [Compound 50, 5-(6-(Acetamido)pyrimidin-4-yl) amino)-6-methoxy-1H-pyrazolo [3,4-b] pyridine formate] | 0.254 µM |
| COc1cc(Nc2cc3cn[nH]c3cc2OC)ncn1 [Compound 51, 5-(6-Methoxypyrimidin-4-yl) amino)-6-methoxy-1H-indazole formate] | 0.197 µM |
| COc1cc2[nH]ncc2cc1Nc1ncncc1OC [Compound 52] | 0.0144 µM |
| COCCOc1cncnc1Nc1cc2cn[nH]c2cc1OC [Compound 53] | 0.0228 µM |
| COc1cc2[nH]ncc2cc1Nc1ncncc1OCCO [Compound 54, 5-(5-(2-Hydroxyethoxy)pyrimidin-4-yl) amino)-6-methoxy-1H-indazole formate] | 0.0343 µM |
| COc1cc2[nH]ncc2cc1Nc1ncncc1OCCN1CCOCC1 [Compound 55, 5-(5-(2-(4-Morpholine)ethoxy)pyrimidin-4-yl) amino)-6-methoxy-1H-indazole formate] | 0.187 µM |
| CCOc1cncnc1Nc1cc2cn[nH]c2cc1OC [Compound 56, 5-(5-Ethoxypyrimidin-4-yl) amino)-6-methoxy-1H-indazole formate] | 0.0198 µM |
| COc1cc2[nH]ncc2cc1Nc1ncncc1Nc1ccccc1 [Compound 57, 5-(5-Anilinopyrimidin-4-yl) amino)-6-methoxy-1H-indazole formate] | 0.323 µM |
| COc1cc2[nH]ncc2cc1Nc1ncnc2[nH]cnc12 [Compound 58, N-(6-Methoxy-1H-indazol-5-yl)-purin-6-amine] | 0.0061 µM |
| COc1cc2[nH]ncc2cc1Nc1ncnc2c1ncn2C [Compound 59, N-(6-Methoxy-1H-indazol-5-yl)-9-methyl-9H-purin-6-amine] | 0.432 µM |
| COc1cc2c(cc1Nc1cc(NC(=O)C3CC3)ncn1)ncn2C(=O)OC(C)(C)C [Compound 60, 1-tert-butoxycarbonyl-5-(6-cyclopropionamidopyrimidin-4-ylamino)-6-methoxybenzimidazole] | 0.792 µM |
| COc1cc2ncn(C(=O)OC(C)(C)C)c2cc1Nc1cc(NC(=O)C2CC2)ncn1 [Compound 61, 3-tert-butoxycarbonyl-5-(6-cyclopropionamidopyrimidin-4-ylamino)-6-methoxybenzimidazole] | 0.594 µM |
| CNc1cncnc1Nc1cc2cn[nH]c2cc1OC [Compound 62, 5-(5-Methylaminopyrimidin-4-yl) amino)-6-methoxy-1H-indazole formate] | 0.0753 µM |
